Data on twelve compounds can be found in ChEMBL document CHEMBL4028817, “Indole-TEMPO conjugates alleviate ischemia-reperfusion injury via attenuation of oxidative stress and preservation of mitochondrial function” (Bioorg Med Chem, 2017).

The term inhibition in vivo denotes the relative decrease from the control value, in per cent.

Data set [1] has as its system Mus musculus. As to the kind of experiment: Anti-inflammatory activity in ICR mouse assessed as inhibition of xylene induced ear edema at 20 mg/kg pretreated orally for 30 mins followed by xylene challenge measured after 2 hrs relative to control. The data set is classed as functional. Particulars: po.
Data set [2] deals with Mus musculus. Briefly: Anti-inflammatory activity in xylene induced ICR mouse ear edema model assessed as edema weight at 20 mg/kg, po pretreated 30 mins followed by xylene challenge measured after 2 hrs (reference value: 4.07 +/- 0.51 mg). Type of data set: functional.
The subject of data set [3] is Mus musculus. As to the kind of experiment: Anti-inflammatory activity in ICR mouse assessed as inhibition of xylene induced ear edema pretreated orally for 30 mins followed by xylene challenge measured after 2 hrs. Type of data set: functional.
Data set [4] has as its system Mus musculus. As to the kind of experiment: Toxicity in mouse assessed as tail bleeding time at 0.50 mmol/kg, po administered 45 mins prior to tail transection measured every 30 secs (reference value: 119.8 +/- 8.4 sec). The data set is classed as organism-based. As to conditions: in vivo.
Data set [5] has as its system Mus musculus. Briefly: Toxicity in mouse assessed as tail bleeding time at 0.50 mmol/kg, po administered 30 mins prior to tail transection measured every 30 secs (reference value: 120.5 +/- 7.9 sec). The data set is classed as organism-based. As to conditions: in vivo.
Data set [6] concerns HUVEC. As to the kind of experiment: Protection against simulated ischemia/reperfusion injury-induced cell death in HUVEC assessed as increase in cell viability at 30 ug/ml treated for 12 hrs under normoxic condition prior to simulated ischemia for 2 hrs followed by compound washout measured 3 hrs post reperfusion. Type of data set: functional, cell-based. As to conditions: Homo sapiens.

In data set [7] the test system is Mus musculus. Briefly: Anti-inflammatory activity in xylene induced ICR mouse ear edema model assessed as edema weight at 0.10 mmol/kg, po pretreated 30 mins followed by xylene challenge measured after 2 hrs (reference value: 4.07 +/- 0.51 mg). The data set is classed as functional.
In data set [8] the test system is Mus musculus. As to the kind of experiment: Toxicity in mouse assessed as tail bleeding time at 0.50 mmol/kg, po administered 90 mins prior to tail transection measured every 30 secs (reference value: 119.3 +/- 7.7 sec). Type of data set: organism-based. Particulars: in vivo.
The subject of data set [9] is Mus musculus. Briefly: Anti-inflammatory activity in ICR mouse assessed as inhibition of xylene induced ear edema at 0.10 mmol/kg pretreated orally for 30 mins followed by xylene challenge measured after 2 hrs relative to control. Type of data set: functional. Particulars: po.
In data set [10] the test system is Mus musculus. As to the kind of experiment: Toxicity in mouse assessed as tail bleeding time at 0.50 mmol/kg, po administered 60 mins prior to tail transection measured every 30 secs (reference value: 120.4 +/- 7.9 sec). The data set is classed as organism-based. As to conditions: in vivo.
The test system of data set [11] is Rattus norvegicus. As to the kind of experiment: Protection against ischemia/reperfusion-induced Wistar rat intestinal injury model assessed as effect on TNFalpha levels at 30 mg/kg administered as bolus dose pretreated for 5 mins followed by 12 hrs reperfusion and subsequent compound addition at 10 mg/kg administered at 1 hr interval during reperfusion period by ELISA (reference value: 62.9 +/- 8.7 pg/ml). Type of data set: functional. A general note: In an ELISA, binding on a coated surface is turned into a signal by an enzyme label.

Data set [12] concerns Rattus norvegicus. Briefly: Protection against ischemia/reperfusion-induced Wistar rat intestinal injury model assessed as reduction in lipid peroxidation by measuring lipid peroxide levels at 30 mg/kg administered as bolus dose pretreated for 5 mins followed by 12 hrs reperfusion and subsequent compound addition at 10 mg/kg administered at 1 hr interval during reperfusion period measured at 1.5 to 12 hrs post reperfusion by spectrophotometric method. Type of data set: functional, organism-based.

Data set [13] concerns Mus musculus. As to the kind of experiment: Anti-inflammatory activity in ICR mouse assessed as inhibition of xylene induced ear edema at 0.02 mmol/kg, po pretreated for 30 mins followed by xylene challenge measured after 2 hrs. The data set is classed as functional, organism-based.
Data set [14] deals with HUVEC. Briefly: Protection against simulated ischemia and reperfusion injury induced mitochondrial oxidative damage in HUVEC assessed as reduction in cytochrome c release at 30 ug/ml treated for 12 hrs under normoxic condition prior to simulated ischemia for 2 hrs followed by compound washout measured 3 hrs post reperfusion by MitoProbe based immuno-fluorescence assay (reference value: 71.2 +/- 4.5%). Type of data set: functional, Homo sapiens. More on the design: scale not given: the % may be the effect or the level left.

In data set [15] the test system is HUVEC. Briefly: Protection against simulated ischemia/reperfusion injury induced mitochondrial oxidative damage in HUVEC assessed as increase in tubular mitochondrial cells at 30 ug/ml pretreated for 12 hrs followed by compound washout and subsequent ischemia simulation for 2 hrs in presence of compound prior to 3 hrs reperfusion under drug free medium by MitoProbe based confocal microscopic analysis. Particulars: Homo sapiens. Type of data set: functional, cell-based.

The test system of data set [16] is Rattus norvegicus. Briefly: Protection against ischemia/reperfusion induced Wistar rat intestinal injury model assessed as reduction in denudation of villous tips at 30 mg/kg administered as bolus dose pretreated for 5 mins followed by 12 hrs reperfusion and subsequent compound treatment at 10 mg/kg administered at 1 hr interval during reperfusion period by hematoxylin-eosin/trichrome/NADH-diaphorase staining based histopathological analysis. The data set is classed as functional, organism-based.

The test system of data set [17] is Rattus norvegicus. As to the kind of experiment: Protection against ischemia/reperfusion-induced Wistar rat intestinal injury model assessed as well-preserved glandular architecture at 30 mg/kg administered as bolus dose pretreated for 5 mins followed by 12 hrs reperfusion and subsequent compound addition at 10 mg/kg administered at 1 hr interval during reperfusion period by hematoxylin-eosin/trichrome/NADH-diaphorase staining based histopathological analysis. Type of data set: functional, organism-based.

In data set [18] the test system is Rattus norvegicus. As to the kind of experiment: Protection against ischemia/reperfusion-induced Wistar rat intestinal injury model assessed as reduction in mitochondrial oxidative damage at 30 mg/kg administered as bolus dose pretreated for 5 mins followed by 12 hrs reperfusion and subsequent compound addition at 10 mg/kg administered at 1 hr interval during reperfusion period by Mitoprobe staining based assay. The data set is classed as functional, organism-based.

Data set [19] has as its system HUVEC. As to the kind of experiment: Protection against simulated ischemia/reperfusion injury induced mitochondrial oxidative damage in HUVEC assessed as decrease in mitochondrial reactive oxygen species level at 30 ug/ml pretreated for 12 hrs followed by compound washout and subsequent ischemia simulation for 2 hrs in presence of compound prior to 3 hrs reperfusion under drug free medium by MitoProbe based confocal microscopic analysis. Type of data set: functional, cell-based. Particulars: Homo sapiens.

The subject of data set [20] is Rattus norvegicus. As to the kind of experiment: Protection against ischemia/reperfusion induecd Wistar rat intestinal injury model assessed as decrease in mucosal neutrophil infiltration at 30 mg/kg administered as bolus dose pretreated for 5 mins followed by 12 hrs reperfusion and subsequent compound addition at 10 mg/kg administered at 1 hr interval during reperfusion period by hematoxylin-eosin/trichrome/NADH-diaphorase staining based histopathological analysis. Type of data set: functional, organism-based.

Activity calls are given as the source filed them. The calls are words filed in the database; no cut-off is given here.

Turning to `CC(=O)Oc1ccccc1C(=O)O` [ASPIRIN], in [1], the inhibition in vivo at 20 mg/kg was found to be 47.1%. Besides, the Activity in data set [2] stood at 2.15 mg.

Regarding `CC1(C)CC(n2cc(CNC(=O)[C@@H](Cc3ccc(O)cc3)NC(=O)[C@@H]3Cc4c([nH]c5ccccc45)CN3C(=O)[C@@H]3Cc4c([nH]c5ccccc45)CN3)nn2)CC(C)(C)N1[O]`, in [3], the inhibition result was “Dose-dependent effect”. The Time in [4] came to 118 s; in [5], 117.2 s; in data set [8] it was 118.6 s; in data set [10], 117.5 s. Further, the outcome in data set [6] was Active. Further, in [7], the Activity came to 1.63 mg. For the same compound, the inhibition in vivo at 100 µmol/kg in [9] is 60%.

`CC1(C)CC(O)CC(C)(C)N1[O]` [TEMPOL]: the Activity in [11] was 25.2 pg/mL. In addition, the outcome in [12] was Active.

As for `CC1(C)CC(n2cc(CNC(=O)[C@@H](CCCCN)NC(=O)[C@@H]3Cc4c([nH]c5ccccc45)CN3C(=O)[C@@H]3Cc4c([nH]c5ccccc45)CN3)nn2)CC(C)(C)N1[O]`, the inhibition entry in data set [3] was “Dose-dependent effect”. For the same compound, the Time in [4] came to 119.8 s; in [5], 121.4 s; in data set [8] it was 118.5 s; in [10] it was 120.5 s. Further, the outcome in [6] was Active. Moreover, the Activity in [7] worked out at 1.75 mg. The inhibition in vivo at 100 µmol/kg in data set [9] came to 57%.

Take `CC1(C)CC(n2cc(CNC(=O)CC[C@@H](NC(=O)[C@@H]3Cc4c([nH]c5ccccc45)CN3C(=O)[C@@H]3Cc4c([nH]c5ccccc45)CN3)C(=O)NCc3cn(C4CC(C)(C)N([O])C(C)(C)C4)nn3)nn2)CC(C)(C)N1[O]`: the inhibition entry in [3] is “Dose-dependent effect”. Besides, the Time in data set [4] came to 117.1 s; in [5], 116.6 s; in data set [8] it was 118.3 s; in data set [10], 119 s. Further, the inhibition result in data set [13] was “Active”. Besides, the Activity in data set [14] is 23.1%; in data set [11] it was 19 pg/mL; in data set [7], 0.8 mg. Moreover, the result in [15], in data set [16], in [6], in data set [17], in [18] and in [19] was Active. For the same compound, the result in [12] and in [20] was Active. Also, in data set [9], the inhibition in vivo at 100 µmol/kg stood at 80.3%.

As to `CC1(C)CC(n2cc(CNC(=O)[C@@H](CCCNC(=N)N([N+](=O)[O-])[N+](=O)[O-])NC(=O)[C@@H]3Cc4c([nH]c5ccccc45)CN3C(=O)[C@@H]3Cc4c([nH]c5ccccc45)CN3)nn2)CC(C)(C)N1[O]`, the inhibition entry in [3] was “Dose-dependent effect”. In addition, the Time is listed as 120.2 s in [4], 121.8 s in [5], 119.7 s in data set [8] and 119.8 s in data set [10]. Also, the outcome in [6] was Active. For the same compound, the Activity in [7] turned out to be 1.5 mg. The inhibition in vivo at 100 µmol/kg in data set [9] amounted to 63.1%.

On to `CSCC[C@@H](NC(=O)[C@@H]1Cc2c([nH]c3ccccc23)CN1C(=O)[C@@H]1Cc2c([nH]c3ccccc23)CN1)C(=O)NCc1cn(C2CC(C)(C)N([O])C(C)(C)C2)nn1`, for which the Time in data set [4] was found to be 118.4 s; in data set [5], 119.3 s; in data set [8], 117.9 s; in data set [10], 119.6 s. The Activity in data set [7] came to 2.3 mg. Also, in [9], the inhibition in vivo at 100 µmol/kg was found to be 43.5%.

Take `CC1(C)CC(n2cc(CNC(=O)[C@H]3CCCN3C(=O)[C@@H]3Cc4c([nH]c5ccccc45)CN3C(=O)[C@@H]3Cc4c([nH]c5ccccc45)CN3)nn2)CC(C)(C)N1[O]`: the Time in data set [4] was found to be 119.5 s; in data set [5] it was 119.9 s; in [8] it was 119.7 s; in data set [10], 121.4 s. Besides, the Activity in [7] is reported as 2.31 mg. For the same compound, in [9], the inhibition in vivo at 100 µmol/kg came to 43.2%.

On to `CC1(C)CC(n2cc(CNC(=O)C[C@@H](NC(=O)[C@@H]3Cc4c([nH]c5ccccc45)CN3C(=O)[C@@H]3Cc4c([nH]c5ccccc45)CN3)C(=O)NCc3cn(C4CC(C)(C)N([O])C(C)(C)C4)nn3)nn2)CC(C)(C)N1[O]`, for which the inhibition result in data set [3] is “Dose-dependent effect”. Also, the Time in data set [4] is reported as 118.2 s; in data set [5], 116.3 s; in data set [8] it was 120.5 s; in data set [10] it was 119.3 s. Moreover, the inhibition result in data set [13] was “Active”. Also, the results for the Activity in data set [14], in [11] and in data set [7] were 29.8%, 21.7 pg/mL and 0.95 mg, respectively. Besides, the result in [15], in [16], in [6], in data set [17], in data set [19] and in data set [12] was Active. The inhibition in vivo at 100 µmol/kg in [9] came out at 76.7%.

Consider `CC1(C)CC(n2cc(CNC(=O)[C@@H](Cc3c[nH]c4ccccc34)NC(=O)[C@@H]3Cc4c([nH]c5ccccc45)CN3C(=O)[C@@H]3Cc4c([nH]c5ccccc45)CN3)nn2)CC(C)(C)N1[O]`, for which the Time in [4] turned out to be 120.3 s; in data set [5], 119.4 s; in data set [8], 117.3 s; in data set [10], 121.8 s. For the same compound, the Activity in [7] turned out to be 2.02 mg. The inhibition in vivo at 100 µmol/kg in data set [9] stood at 50.4%.

Take `CC1(C)CC(n2cc(CNC(=O)[C@@H](Cc3c[nH]cn3)NC(=O)[C@@H]3Cc4c([nH]c5ccccc45)CN3C(=O)[C@@H]3Cc4c([nH]c5ccccc45)CN3)nn2)CC(C)(C)N1[O]`: the Time is reported as 120.5 s in data set [4], 119 s in data set [5], 118 s in data set [8] and 119.5 s in data set [10]. Further, the Activity in data set [7] is 2.09 mg. In addition, the inhibition in vivo at 100 µmol/kg in data set [9] is 48.6%.

On to `CC1(C)CC(n2cc(CNC(=O)[C@@H](CC(N)=O)NC(=O)[C@@H]3Cc4c([nH]c5ccccc45)CN3C(=O)[C@@H]3Cc4c([nH]c5ccccc45)CN3)nn2)CC(C)(C)N1[O]`, for which the inhibition entry in [3] was “Dose-dependent effect”. In addition, the Time in data set [4] was determined as 118.4 s; in [5] it was 119.7 s; in data set [8], 119.2 s; in data set [10] it was 119.5 s. Besides, the outcome in data set [6] was Active. Moreover, the Activity in [7] came to 1.78 mg. For the same compound, the inhibition in vivo at 100 µmol/kg in data set [9] is 56.3%.
